The values that follow are results of earlier work, collected in patent US20160051533A1, “DIAGNOSIS AND PHARMACOLOGICAL TREATMENT OF SEASONAL AFFECTIVE DISORDER AND SYMPTOMS OF SEASONALITY” (Ladd Research LLC, priority 2014, published 2016).

Ends that are not written are not given here.

One series deals with mice. The conditions noted are these: no photoperiod manipulation; cited from earlier work.
For series [1], the system named is rat ventral tegmental area dopamine neurons. The conditions noted are these: 0.0001-10 micro molar orexin A; nearly half of the tested neurons; cited from earlier work.

Take `Cc1nc2ccc(NC(=O)Nc3ccnc4cccnc34)cc2o1` [SB-334867]: the “immobility in Forced Swim Test and Tail Suspension Test” value in the series with mice was “decreased immobility”.

“orexin A: neuropeptide of 33 amino acid residues with two disulfide bonds, derived from prepro-orexin (QPLPDCCRQKTCSCRLYELLHGAGNHAAGILTL; disulfide (positions not given here); ends not checked; also: two disulfide bonds, pairing not given here; UniProt O43612 34-66, looked up)”: the basal firing frequency in series [1] is 175+/−17 % of control.
